Values after ≈ are worked out from the molar mass of the structure shown. Where two headings read alike, the source gives them in different places. Marks after values point to notes of the source that are not given here. Where a SMILES comes first, the peptide text is derived from it. [ ]: non-standard residue; d: D form. hArg = N=C(N)NCCCC[C@H](N)C(=O)O; 2Thi = N[C@@H](Cc1cccs1)C(=O)O; Dab = NCC[C@H](N)C(=O)O; Dap = NC[C@H](N)C(=O)O
How the values were obtained:
[1] = system: human erythrocytes; experiment: Hemolytic activity assay; type: cell-based; details: human RBC in PB, 37°C, 1 h, OD420, total lysis control 0.1% SDS, three technical replicates
Outline: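 Washed RBCs from a healthy volunteer were incubated with peptides at 32–128 μM for 1 h at 37°C in PB. Hemoglobin release into the supernatant was read as OD420 against total lysis with 0.1% SDS, in three technical replicates.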

[2] = system: S. aureus ATCC 25923; experiment: microbe, parasite or virus in culture; type: cell-based, Staphylococcus aureus; details: ATCC 25923, 20 h
Outline: (§1)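 Inocula were set to 0.5 McFarland and diluted to ~5 × 10^5 CFU/mL (bacteria, MH broth) or 0.5 × 10^3 to 2.5 × 10^3 CFU/mL (yeast, RPMI 1640). Peptide twofold dilutions were added, plates incubated 20 h at 37°C or 48 h at 35°C, then scored by eye.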

[3] = system: proteases secreted by P. aeruginosa ATCC 27853; experiment: in vitro; details: P. aeruginosa ATCC 27853 culture supernatant, pH 8
Outline: (§2)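 Cell-free culture supernatants (overnight, 37°C; MH broth for bacteria, 2% tryptone/2% dextrose for yeast) were centrifuged, adjusted to pH 8.0 and 0.22 μm filtered. Peptides at 0.5 mg/mL were incubated in supernatant 24 h at 37°C; remaining intact peptide measured by RP-HPLC, with peptide-free supernatant as negative control.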

[4] = system: proteases secreted by C. albicans ATCC 10231; experiment: in vitro; details: C. albicans ATCC 10231 culture supernatant, pH 8
Outline: as §2

[5] = system: proteases secreted by S. aureus ATCC 25923; experiment: in vitro; details: S. aureus ATCC 25923 culture supernatant, pH 8
Outline: as §2

[6] = system: C. albicans ATCC 10231; experiment: microbe, parasite or virus in culture; type: cell-based, Candida albicans; details: ATCC 10231, 48 h
Outline: as §1

[7] = system: E. coli ATCC 25922; type: cell-based, Escherichia coli
Outline: as §1

[8] = system: carbapenem-resistant P. aeruginosa (CRPA) SIPI-012; type: cell-based, Pseudomonas aeruginosa
Outline: as §1

[9] = system: P. aeruginosa ATCC 27853; type: cell-based, Pseudomonas aeruginosa
Outline: as §1

[10] = system: RAW 264.7 cells; experiment: Cell viability assay (MTT); type: cell-based, mouse; details: 1–128 μM peptide in DMEM with 4% FBS, 42 h, 595 nm, triplicate
Outline: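 RAW 264.7 cells (1 × 10^4/well, DMEM + 10% FBS) grown overnight to 80% confluency, then exposed to peptides at 1–128 μM in DMEM with 4% FBS for 42 h at 37 °C. MTT read at 595 nm; viability relative to medium-only controls, triplicate, IC50 as 50% loss of viability.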

[11] = system: carbapenem-resistant A. baumannii (CRAB) SIPI-025; type: cell-based, Acinetobacter baumannii
Outline: as §1

[12] = system: A. baumannii ATCC 19606; type: cell-based, Acinetobacter baumannii
Outline: as §1

[13] = system: P. aeruginosa ATCC 9027; experiment: In vivo antibacterial activity, lethal intraperitoneal infection; details: BALB/c mice, lethal i.p. dose of P. aeruginosa ATCC 9027, 10 mg/kg i.p. at 1 and 8 h post-infection, n = 10
Protocol: The in vivo antibacterial activities of the peptides were evaluated in BALB/c mice using P. aeruginosa ATCC 9027 as a test strain. A total of 20 mice (6 weeks old, approximate weight: 18–20 g, SFP grade) were first used to measure the minimal lethal doses (MLD) with 5 mice for each inoculum. Cell numbers of selected strains were determined from the colony numbers from the plate count agar and four inocula (1 × 10^6, 5 × 10^6, 1 × 10^7, and 5 × 10^7 CFU/mouse) were administered via intraperitoneal injection. The minimal lethal dose was determined by measuring the mortality rate after 72 h. BALB/c mice were then injected intraperitoneally with a lethal dose of P. aeruginosa ATCC 9027. […] Colistin (10 mg/kg) was used as a positive control. The survival of the animals was monitored over 7 d.

[14] = system: BALB/c mice; experiment: In vivo acute toxicity, single injection; design: species or system mouse; details: three mice, monitored 24 h
Protocol: Six-week-old mice (approximate weight: 18–20 g, SFP grade) were bred and maintained under specific pathogen-free conditions on a 12 h light/dark cycle. The peptides were dissolved in PBS (pH 7.4) and three mice were used for each dose. As a control, colistin was administered in a similar manner. The mice were monitored for 24 h and mice were weighed at the end of the experiment. The procedure was evaluated and approved by the Ethical Committee of Experimental Animals of the Chia Tai Tianqing Pharmaceutical Group in August 2019.
As summarized in Figure 6, a toxicity score was assigned as follows: no abnormalities = without signs; mild depression, poor motility, purple-black tail, and recovery in 1 h = mild signs; serious depression and poor motility even under stimulation = manifest signs; sudden death within 10 min = died of toxic effects.

[15] = carbapenem-resistant (CRPA) SIPI-012, 20 h
[16] = carbapenem-resistant (CRAB) SIPI-025, 20 h

Row | Compound | Hemolysis rate (%) ([1]; 64 μM) | Hemolysis rate (%) ([1]; 128 μM) | MIC [2] [µg/mL] | MIC [6] [µg/mL] | MIC ([7]; ATCC 25922, 20 h) [µg/mL] | MIC [8, 15] [µg/mL] | MIC ([9]; ATCC 27853, 20 h) [µg/mL] | IC50 [10] [µM] | MIC [11, 16] [µg/mL] | MIC ([12]; ATCC 19606, 20 h) [µg/mL] | remaining at 24 h, 0.5 mg/mL ([5]; Staphylococcus aureus) [%] | remaining at 24 h, 0.5 mg/mL ([4]; Candida albicans) [%] | other results
1 | CC(C)C[C@H](NC(=O)[C@H](Cc1ccc(O)cc1)NC(=O)[C@H](CCN)NC(=O)[C@H](CC(C)C)NC(=O)[C@H](CC(C)C)NC(=O)[C@H](CCN)NC(=O)[C@H](CCN)NC(=O)[C@H](Cc1ccccc1)NC(=O)[C@H](CC(C)C)NC(=O)[C@H](CCCCNC(=N)N)NC(=O)[C@@H](N)CCN)C(=O)N[C@@H](CCCNC(=N)N)C(=O)N[C@@H](CCN)C(=O)N[C@@H](Cc1ccccc1)C(N)=O [UP12] (H-[Dab][hArg]LF[Dab][Dab]LL[Dab]YLR[Dab]F-NH2) | 45.13 ± 1.95 | ∼100.00* % | 1 (≈ 0.57 µM) | 4 (≈ 2.28 µM) | 2 (≈ 1.14 µM) | 4 (≈ 2.28 µM) | 2 (≈ 1.14 µM) | 21.2 ± 2.42 | 4 (≈ 2.28 µM) | 2 (≈ 1.14 µM) | – | – | remaining at 24 h, 0.5 mg/mL [3]: 20.6 ± 4.3%; remaining at 24 h, 0.5 mg/mL [4]: 37.7 ± 5.24%; remaining at 24 h, 0.5 mg/mL [5]: 69.5 ± 5.97%
2 | CC(C)C[C@H](NC(=O)[C@H](Cc1ccc(O)cc1)NC(=O)[C@H](CCN)NC(=O)[C@H](CC(C)C)NC(=O)[C@H](CC(C)C)NC(=O)[C@H](CN)NC(=O)[C@H](CN)NC(=O)[C@H](Cc1ccccc1)NC(=O)[C@H](CC(C)C)NC(=O)[C@H](CCCCNC(=N)N)NC(=O)[C@@H](N)CN)C(=O)N[C@@H](CCCCNC(=N)N)C(=O)N[C@@H](CCN)C(=O)N[C@@H](Cc1cccs1)C(N)=O [UP11] (H-[Dap][hArg]LF[Dap][Dap]LL[Dab]YL[hArg][Dab][2Thi]-NH2) | 95.65 ± 2.31 | ∼100.00* % | 1 (≈ 0.577 µM) | 4 (≈ 2.31 µM) | 2 (≈ 1.15 µM) | 8 (≈ 4.62 µM) | 2 (≈ 1.15 µM) | 28.3 ± 5.8 | 2 (≈ 1.15 µM) | 2 (≈ 1.15 µM) | 35.7 ± 3.82 | – | remaining at 24 h, 0.5 mg/mL ([3]; Pseudomonas aeruginosa): 22.4 ± 1.72%
3 | CC(C)C[C@H](NC(=O)[C@H](Cc1ccc(O)cc1)NC(=O)[C@H](CCN)NC(=O)[C@H](CC(C)C)NC(=O)[C@H](CC(C)C)NC(=O)[C@H](CCN)NC(=O)[C@H](CN)NC(=O)[C@H](Cc1cccs1)NC(=O)[C@H](CC(C)C)NC(=O)[C@H](CCCNC(=N)N)NC(=O)[C@@H](N)CCN)C(=O)N[C@@H](CCCCNC(=N)N)C(=O)N[C@@H](CCN)C(=O)N[C@@H](Cc1ccccc1)C(N)=O [UP15] (H-[Dab]RL[2Thi][Dap][Dab]LL[Dab]YL[hArg][Dab]F-NH2) | 54.16 ± 2.02 | 97.86 ± 3.07 % | 1 (≈ 0.573 µM) | 4 (≈ 2.29 µM) | 2 (≈ 1.15 µM) | 4 (≈ 2.29 µM) | 1 (≈ 0.573 µM) | 28.7 ± 3.52 | 2 (≈ 1.15 µM) | 2 (≈ 1.15 µM) | 54.6 ± 4.19 | 21.1 ± 5.28 | –
4 | CC(C)C[C@H](NC(=O)[C@H](Cc1ccc(O)cc1)NC(=O)[C@H](CCN)NC(=O)[C@H](CC(C)C)NC(=O)[C@H](CC(C)C)NC(=O)[C@H](CCN)NC(=O)[C@H](CCN)NC(=O)[C@H](Cc1ccccc1)NC(=O)[C@H](CC(C)C)NC(=O)[C@H](CCCCNC(=N)N)NC(=O)[C@@H](N)CCN)C(=O)N[C@@H](CCCCNC(=N)N)C(=O)N[C@@H](CCN)C(=O)N[C@@H](Cc1ccccc1)C(N)=O [UP13] (H-[Dab][hArg]LF[Dab][Dab]LL[Dab]YL[hArg][Dab]F-NH2) | 41.03 ± 1.38 | ∼100.00* % | 0.5 (≈ 0.283 µM) | 4 (≈ 2.26 µM) | 2 (≈ 1.13 µM) | 4 (≈ 2.26 µM) | 2 (≈ 1.13 µM) | 21.7 ± 4.14 | 2 (≈ 1.13 µM) | 2 (≈ 1.13 µM) | 78.5 ± 3.39 | 34 ± 6.12 | –
5 | colistin [reference compound] | – | – | – | – | – | – | – | – | – | – | – | – | survival rate ([13]; after 3 d): 100%; survival rate ([13]; after 7 d): 100%; MIC ([7]; E. coli ATCC 25922, MH broth, 37°C, 20 h, visual, independent triplicate assays): 0.25 µg/mL; MIC ([8]; CRPA SIPI-012, MH broth, 37°C, 20 h, visual, independent triplicate assays): 1 µg/mL; MIC ([9]; P. aeruginosa ATCC 27853, MH broth, 37°C, 20 h, visual, independent triplicate assays): 0.5 µg/mL; signs of toxicity after intravenous injection ([14]; single i.v. dose 10 mg/kg): two out of three mice dying immediately; signs of toxicity after intravenous injection ([14]; single i.v. dose 20 mg/kg): all three mice dying; MIC ([11]; CRAB SIPI-025, MH broth, 37°C, 20 h, visual, independent triplicate assays): 0.25 µg/mL; MIC ([12]; A. baumannii ATCC 19606, MH broth, 37°C, 20 h, visual, independent triplicate assays): 0.25 µg/mL

— article PMC7688903 (Frontiers in Microbiology, 2020)
